According to the supplement of paper PMC4858399:
Counter-ions that a name gives are not always drawn.

Experiments:
Conditions in all cases: exposure time 48 h
[1] = tested on: Caenorhabditis elegans N2; experiment: AC50 for larval growth inhibition (Hill fit); higher = less potent
Method in brief: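 Synchronised C. elegans N2 L1 larvae, 50 per well in 96-well plates, were grown at 20°C for 48 h in K-medium with killed OP50, 1% DMSO and 0.5–200 µM chemical. Worm size was read on a COPAS Biosort as extinction, log-transformed and averaged per well, and only wells holding at least 10 worms were kept. AC50 was obtained by a constrained Hill fit using weighted genetic-algorithm regression, with out-of-range values censored.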

[2] = tested on: Caenorhabditis elegans N2; experiment: lowest effective concentration for larval growth inhibition (size below effect threshold); higher = less potent
Method in brief: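 Log-transformed well means of per-worm extinction, read as size on a Biosort, came from 50 C. elegans N2 L1 larvae per 96-well grown 48 h at 20°C in K-medium with killed bacteria, 1% DMSO and 0.5 to 200 µM chemical. The lowest effective concentration is the first dose at which the plate-adjusted mean size is below the threshold and stays below it at every higher dose. The threshold is 5.665.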

[3] = tested on: Caenorhabditis elegans N2; experiment: mean nematode size ln(EXT) after 48 h, plate-adjusted (DMSO control set to 6) (ln(EXT), control-adjusted); higher = larger nematodes / less growth inhibition
Method in brief: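 Chemical at 0.5–200 µM was tested on synchronised C. elegans N2 L1 larvae grown for 48 h at 20°C in K-medium with killed OP50 and 1% DMSO. Per-worm Biosort extinction, cleared of debris by a growth model, was natural-logged and averaged per well to give mean size. Plates were normalised by subtracting the vehicle control mean and adding 6.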

| SMILES | AC50 for larval growth inhibition [1] | lowest effective concentration [2] | mean nematode size ln(EXT) (ln) ([3]; 0.5 µM) | mean nematode size ln(EXT) (ln) ([3]; 1 µM) | mean nematode size ln(EXT) (ln) ([3]; 5 µM) | mean nematode size ln(EXT) (ln) ([3]; 10 µM) | mean nematode size ln(EXT) (ln) ([3]; 50 µM) | mean nematode size ln(EXT) (ln) ([3]; 100 µM) | mean nematode size ln(EXT) (ln) ([3]; 200 µM) |
| --- | --- | --- | --- | --- | --- | --- | --- | --- | --- |
| O=[N+]([O-])c1c(Cl)c(Cl)c(Cl)c(Cl)c1Cl [Quintozene] | 194 µM | 200 µM | 5.85 | 5.74 | 5.72 | 5.88 | 5.93 | 5.94 | 5.11 |
| CO/C=C(/C(=O)OC)c1ccccc1COc1cccc(C(F)(F)F)n1 [Picoxystrobin] | 48.6 µM | 50 µM | 5.95 | 5.83 | 5.92 | 5.89 | 4.97 | 4.26 | 4.61 |
| Clc1nc(Cl)nc(Nc2ccccc2Cl)n1 [Anilazine] | > 200 µM | 200 µM | 6.11 | 6.01 | 6.13 | 6.11 | 5.99 | 5.78 | 5 |
| CCCCC(CC)COC(=O)CC(C(=O)OCC(CC)CCCC)S(=O)(=O)O (stereo not drawn) [Docusate sodium] | 57.1 µM | 50 µM | 5.96 | 5.98 | 5.93 | 5.93 | 4.65 | 4.05 | 3.28 |
| CC(C)(C)c1ccc(O)c(C(C)(C)C)c1 [2,4-Di-tert-butylphenol] | 186 µM | 50 µM | 5.97 | 5.97 | 5.99 | 5.88 | 5.62 | 5.5 | 4.45 |
| CCCCCCCCCCCC[N+](C)(C)C [Dodecyl trimethyl ammonium chloride] | 199 µM | 100 µM | 5.76 | 6.02 | 5.88 | 5.9 | 5.76 | 5.65 | 4.53 |
| CC(Oc1ccc(Cl)cc1Cl)C(=O)O (stereo not drawn) [Dichlorprop] | 106 µM | 200 µM | 5.91 | 5.93 | 5.86 | 6.06 | 6.04 | 5.88 | 5.44 |
| OC(c1ccc(Cl)cc1)(c1cncnc1)c1ccccc1Cl (stereo not drawn) [Fenarimol] | 59.8 µM | 50 µM | 6.14 | 6.17 | 6.07 | 5.92 | 5.21 | 3.58 | 3.32 |
| CC(C)c1cccc(C(C)C)c1 [1,3-Diisopropylbenzene] | 175 µM | 200 µM | 6.02 | 5.98 | 5.99 | 6.07 | 6.21 | 6.12 | 5.46 |
| CCOC(=O)O[C@H](C)OC(=O)c1ccc2c(c1)cc(C(=O)NC1CCN(C(C)C)CC1)n2Cc1cc(-c2ccc(Cl)s2)on1 | 78.2 µM | 50 µM | 5.85 | 5.86 | 5.87 | 5.76 | 4.76 | 4.59 | 3.71 |
| CCCCCCC(CCCCCCCCCCC(=O)OCC(COC(C)=O)OC(C)=O)OC(C)=O (stereo not drawn) | > 200 µM | 50 µM | 5.48 | 5.6 | 5.59 | 5.69 | 5.64 | 5.58 | 5.53 |
| CCCCCCCCn1sccc1=O [Octhilinone] | 34.9 µM | ≤ 0.5 µM | 5.47 | 5.54 | 5.56 | 5.58 | 4.2 | 3.68 | 3.36 |
| Nc1ccn([C@@H]2O[C@H](CO)[C@@H](O)[C@@H]2O)c(=O)n1 [Cytarabine HCl] | > 200 µM | 200 µM | 5.96 | 5.87 | 5.95 | 6 | 5.89 | 6.03 | 5.47 |
| CN(C)[C@@H]1C(=O)C(C(N)=O)=C(O)[C@@]2(O)C(=O)C3=C(O)c4c(O)cccc4[C@@](C)(O)[C@H]3[C@H](O)[C@@H]12 [Oxytetracycline dihydrate] | > 200 µM | 200 µM | 5.86 | 6.02 | 6.01 | 5.95 | 5.87 | 5.83 | 5.46 |
| N=C(N)c1ccc(OCCCCCOc2ccc(C(=N)N)cc2)cc1 [Pentamidine isethionate salt] | 149 µM | 50 µM | 6.04 | 6.06 | 6 | 5.89 | 5.44 | 5.05 | 4.25 |
| O=C(NC(=O)c1cc(F)c(F)cc1Cl)Nc1cc(F)ccc1N1CCC(C(=O)O)CC1 | 91.3 µM | 200 µM | 5.94 | 5.9 | 5.94 | 5.9 | 5.93 | 5.73 | 5.57 |
| CCCCCCCCCCCCCCCCOS(=O)(=O)O [Sodium cetyl sulfate] | 74.7 µM | 50 µM | 5.79 | 6.01 | 5.91 | 5.92 | 5.38 | 5 | 4.68 |
| OCCO [Ethylene glycol] | > 200 µM | 100 µM | 5.79 | 5.77 | 5.77 | 5.78 | 5.72 | 5.63 | 5.65 |
| CC/C(=C(\c1ccccc1)c1ccc(OCCN(C)C)cc1)c1ccccc1 [Tamoxifen] | 20.8 µM | 50 µM | 5.79 | 5.76 | 5.65 | 5.67 | 3.84 | 3.93 | 3.53 |
| c1ccc(C(O[C@@H]2CCCN(CCc3ccc4c(c3)OCO4)C2)c2ccccc2)cc1 [Zamifenacin] | 70.4 µM | 10 µM | 5.83 | 5.81 | 5.73 | 5.55 | 4.99 | 4.17 | 3.31 |
| CC(C)CCCCCCCOC(=O)c1ccccc1C(=O)OCCCCCCCC(C)C [Diisodecyl phthalate] | > 200 µM | 200 µM | 5.44 | 5.55 | 5.58 | 5.72 | 5.68 | 5.67 | 5.66 |
| CCCC1COC(Cn2cncn2)(c2ccc(Cl)cc2Cl)O1 (stereo not drawn) [Propiconazole] | > 200 µM | 200 µM | 6.02 | 6.09 | 6.16 | 6.21 | 5.95 | 5.93 | 5.05 |
| O=C1c2c(O)cccc2Cc2cccc(O)c21 [Dithranol] | 189 µM | 200 µM | 5.83 | 5.82 | 5.81 | 5.77 | 5.67 | 5.74 | 4.35 |

| SMILES | AC50 for larval growth inhibition [1] | lowest effective concentration [2] | mean nematode size ln(EXT) (ln) ([3]; 0.5 µM) | mean nematode size ln(EXT) (ln) ([3]; 1 µM) | mean nematode size ln(EXT) (ln) ([3]; 5 µM) | mean nematode size ln(EXT) (ln) ([3]; 10 µM) | mean nematode size ln(EXT) (ln) ([3]; 50 µM) | mean nematode size ln(EXT) (ln) ([3]; 100 µM) | mean nematode size ln(EXT) (ln) ([3]; 200 µM) |
| --- | --- | --- | --- | --- | --- | --- | --- | --- | --- |
| Nc1ccc(Cl)cc1N [4-Chloro-o-phenylenediamine] | 39 µM | 50 µM | 5.89 | 5.85 | 5.91 | 5.85 | 5.36 | 5.03 | 5.01 |
| NCc1cccc(C2CCN(C(=O)c3ccc(C#Cc4ccccc4F)o3)CC2)c1 | 31.6 µM | 5 µM | 5.96 | 5.71 | 5.61 | 5.42 | 4.45 | 3.28 | – |
| CCOC(=O)C(C)(C)Oc1ccc(Cl)cc1 [Clofibrate] | > 200 µM | 200 µM | 6.01 | 5.8 | 5.86 | 5.81 | 5.75 | 5.78 | 5.54 |
| Cl[C@H]1[C@H](Cl)[C@@H](Cl)[C@@H](Cl)[C@H](Cl)[C@H]1Cl [Lindane] | 175 µM | 50 µM | 5.77 | 5.98 | 5.79 | 5.94 | 5.42 | 5.2 | 4.35 |
| CC(c1ccc(O)cc1)(c1ccc(O)cc1)c1ccc(O)cc1 [4,4’,4"-Ethane-1,1,1-triyltriphenol] | 79.3 µM | 100 µM | 5.76 | 6.01 | 5.91 | 5.91 | 5.87 | 5.39 | 5.19 |
| CCCCNC(=O)OCC#CI [3-Iodo-2-propynylbutylcarbamate] | 101 µM | 100 µM | 6.05 | 5.98 | 6.06 | 6.03 | 5.84 | 4.8 | 3.17 |
| c1ccc2c(c1)-c1cccc3c1c-2cc1ccccc13 [Benzo[b]fluoranthene] | < 0.5 µM | ≤ 0.5 µM | 5.22 | 4.39 | 4.09 | 4.15 | 4.17 | 5.53 | 4.32 |
| CC(=O)[C@H]1CC[C@H]2[C@@H]3CCC4=CC(=O)CC[C@]4(C)[C@H]3CC[C@]12C [Progesterone] | > 200 µM | 200 µM | 5.84 | 5.84 | 5.86 | 5.9 | 5.72 | 5.95 | 5.58 |
| CC(C)(C)C(=O)C(Oc1ccc(Cl)cc1)n1cncn1 (stereo not drawn) [Triadimefon] | > 200 µM | 200 µM | 5.76 | 5.75 | 5.57 | 5.71 | 5.98 | 5.91 | 5.36 |
| Cc1ccccc1Cl [2-Chlorotoluene] | 178 µM | 200 µM | 6.08 | 6.06 | 5.92 | 6.02 | 5.98 | 6.04 | 3.3 |
| O=C1C2(Cl)C3(Cl)C4(Cl)C(Cl)(Cl)C5(Cl)C3(Cl)C1(Cl)C5(Cl)C24Cl (stereo not drawn) [Kepone (Chlordecone)] | 3.31 µM | 1 µM | 5.67 | 5.53 | 4.74 | 4.04 | 3.69 | 3.63 | 4.06 |
| CS/C(C)=N\OC(=O)N(C)SN(C)C(=O)O/N=C(\C)SC [Thiodicarb] | 28.4 µM | 5 µM | 5.54 | 5.83 | 5.32 | 5.34 | 4.27 | 3.74 | 3.51 |
| CC(C)(OO)c1ccccc1 [Cumene hydroperoxide] | > 200 µM | 200 µM | 5.92 | 5.91 | 5.94 | 5.75 | 5.88 | 5.75 | 5.62 |
| CCOC(=O)C(Cl)Cc1cc(-n2nc(C)n(C(F)F)c2=O)c(F)cc1Cl (stereo not drawn) [Carfentrazone-ethyl] | > 200 µM | 200 µM | 6.04 | 5.98 | 6.04 | 6.04 | 5.93 | 5.98 | 5.59 |
| COc1ccc(OC(F)(F)F)cc1CN[C@H]1CCCN[C@H]1c1ccccc1 | 185 µM | 50 µM | 6.04 | 5.82 | 5.68 | 5.67 | 5.39 | 4.71 | 4.55 |
| Nc1ccc(S(=O)(=O)c2ccc(N)cc2)cc1 [4-Aminophenyl sulfone] | > 200 µM | 200 µM | 5.93 | 5.92 | 5.94 | 5.86 | 5.83 | 5.8 | 5.56 |
| CCc1cccc(C)c1N(C(=O)CCl)C(C)COC (stereo not drawn) [Metolachlor] | > 200 µM | 50 µM | 5.64 | 5.7 | 5.74 | 5.81 | 5.63 | 5.63 | 5.64 |
| N#Cc1c[nH]cc1-c1cccc2c1OC(F)(F)O2 [Fludioxonil] | 101 µM | 100 µM | 6.15 | 6.03 | 6.08 | 6.01 | 6.06 | 5.27 | 4.42 |
| COP(=S)(OC)Oc1ccc([N+](=O)[O-])c(C)c1 [Fenitrothion] | 37 µM | 5 µM | 5.97 | 5.72 | 5.6 | 5.46 | 4.49 | 3.96 | 4.09 |
| CC/C(=C(\c1ccccc1)c1ccc(OCCN(C)C)cc1)c1ccccc1 [Tamoxifen citrate salt] | 10.9 µM | 10 µM | 5.96 | 6 | 5.82 | 5.01 | 3.9 | 3.68 | – |
| CN(C)c1ccc(C(=O)c2ccc(N(C)C)cc2)cc1 [Michler's ketone] | > 200 µM | 200 µM | 5.78 | 5.87 | 5.83 | 5.78 | 5.82 | 5.88 | 5.58 |
| Cc1ccc(N)cc1N [2,4-Diaminotoluene] | > 200 µM | 200 µM | 5.86 | 5.94 | 5.9 | 5.74 | 5.89 | 5.72 | 5.5 |
